What was measured:
human cancer cells = conditions: cited from earlier work; for cytostatic / cytocidal activity: cellular assays and in vivo
[1] = tested on: microtubule protein (MTP); assay: Microtubule assembly (MTP polymerization) in vitro, optical test at 350 nm; format: biochemical, bovine or rabbit (brain); conditions: for Percent inhibition of intitial velocity (microtubule assembly in vitro): 10 μM drug, GTP 1 mM, 37° C., averages of duplicate assay; for effect of substitution on inhibition of MTP polymerization: compared with DIME; for inhibitory action on MTP assembly (comparison, FIG. 2): drug concentrations up to 20 μM; for order of potency on MTP assembly (FIG. 3): zero to 10 μM drug, lowered GTP concentration (10 μM)
Text: This inhibition is critically dependent on the concentration of GTP. The quantitative correlation between the concentrations of DIME and GTP, under conditions of a linear rate of MTP polymerization, follows Michaelis-Menten kinetics and the inhibition portrays a "mixed" type, where km for GTP and Vmax are altered simultaneously. Chemical analogues of DIME inhibit MTP polymerization parallel to their antitumorigenic action in vivo. The MTP site is one of the early cellular response sites of DIME.
J. Oncol. Abnormal spindle structures could be the result of DIME-MTP interaction or reactions of DIME with components of the microtubule organizing center or with as yet undefined systems sequentially or in concert. Since time-dependent quantitative analysis of the MTP system in situ is unsuitable for initial velocity measurement we adapted the in vitro assembly system of neurotubules as a model for a quantitative analysis of the interaction of DIME with MTP. […] The time course of MTP assembly consists of initiation and propagation and termination steps, Gaskin, et al., 1974, "Turbidimetric studies of the in vitro assembly and disassembly of porcine neurotubules", J. Mol. Biol. 89:737-758. The rate of propagation under defined conditions is sufficiently linear to permit kinetic analysis, that can be evaluated with respect DIME and GTP concentrations. As we show here the inhibition of MTP assembly by DIME occurs in the same range of drug concentration as required to inhibit tumorigonesis in vivo, or to inhibit cell replication or induce eventual cell death; Mendeleyev, et al., 1997. "Structural specificity and tumoricidal action of methyl-3,5-diiodo-4-(4'-methoxyphenoxy)benzoate (DIME)" Int. J. Oncol., 10:689-695. Therefore the DIME-MTP interaction is most probably a component of the apparently pleiotropic cellular mechanism of action of DIME.
Preparation of MTP and an optical test for polymerization was adopted from published methods, Gaskin, et al., 1974, "Turbidimetric studies of the in vitro assembly and disassembly of porcine neurotubules", J. Mol. Biol. 89:737-758; Tiwari, et al., 1993, "A pH and temperature-dependent cycling method that doubles the yield of microtubule protein", Anal. Biochem. 215:96-103. Bovine or rabbit brain was homogenized in an equal volume of ice cold buffer containing 100 mM Pipes/K^+ (pH 7.4), 4 mM EGTA. 1 mM MgCl2, 0.5 mM DTT and 0.1 mM PMSF, and centrifuged at 39,000 g for 1 hour at 4° C. To the supernatant, DMSO (8% final concentration) and GTP (1 mM final concentration) were added, followed by incubation at 37° C. for 30 minutes. Microtubules were pelleted at 100,000 g at 37° C. for 30 minutes. The pellets were incubated on ice for 15 minutes, followed by resuspension in ice cold PEM buffer (100 mM Pipes/K+ (pH 6.9), 1 mM EGTA, 1 mM MgCl2). This warm polymerization and cold depolymerization cycle was repeated once more and the cold, resuspended monomeric MTP (8-10 mg/ml protein) was used for the optical test for polymerization kinetics. Both rabbit or bovine brain yielded identical MTP preparations.
The polymerization reaction was started by the addition of […] of MTP solution (equivalent to 0.8-1.0 mg protein) and initial linear rates of increase in absorbance at 350 nm followed and recorded at 37° C. in a Perkin-Elmer 552 double beam spectrophotometer, equipped with a thermostatically controlled cuvette holder.
It is apparent that the rate of MTP polymerization proceeds in a linear manner, thus conditions for maximal polymerization rates as defined by Berne, B, 1974, "Interpretation of light scattering from long rods", J. Mol. Biol. 89:755-758 appear fulfilled. Therefore it is possible to determine the quantitative correlation between [DIME] and [GTP] by comparing the linear rate in the presence of varying drug and activator concentrations.
The assay system consisted of 240 μl of PEM buffer containing 8% DMSO […]
(added in 3 μl), or solvent control and 0.6 mg MTP (60 μl). […]

E-ras 20 cells = conditions: carboxylic acid vs methyl ester; cited from earlier work
[2] = tested on: human mammary cancer cells (MDA-MB-231); assay: Growth of human mammary cancer cells (Table 2 A); format: cell-based; conditions: 2 μM
Text: (§1) The effects of these three substances on the growth of human mammary cancer cells (MDA-MB-231) and human lung cancer cells (A 549) are summarized in Table 2.
In section (a) of Table 2 the effects of DIME, DIPE and DIPP on the growth of mammary cancer cells, assayed at 48 and 72 hrs, is shown. […] The slightly lesser efficacy of DIPP could be predicted from earlier results obtained with DIME analogs (International Journal of Oncology, 1997, 10, 689-695, FIG. 1) where we have shown that extending the methyl to ethyl substitution (on the carboxyl ester) diminishes cytotoxicity against tumor cells. A similar phenomenon occurs when DIPE is extended to DIPP (i.e. from the ethanone to the propanone).
(§2) (×10^3) Cell number per 2 cm^2

[3] = tested on: human lung cancer cells (A 549); assay: Growth of human lung cancer cells (Table 2 B); format: cell-based
Text: as §1, §2

mammary cancer cells = assay: Colony formation by mammary cancer cells (FIG. 1); format: cell-based, human; conditions: DIME vs DIPE
Text: FIG. 1 is a graph illustrating the cell killing effects of DIME and DIPE on mammary cancer colonies;
The effect of DIME and DIPE on colony formation by mammary cancer cells is illustrated in FIG. 1, where the results are superimposable, confirming that cytocidal action of DIME and DIPE are indistinguishable.

cellular esterases = assay: Stability against cellular esterases
Text: Moreover, amide analogs of DIME, having an NH2 or a substituted amino group, may be subject to hydrolysis catalyzed by cellular amidases. Since the hydrolysis product of such a hydrolysis is a carboxylic acid, the same decrease in efficacy can result. In order to decrease the chemical lability in the DIME pharmacophore structure, ketone analogues of DIME may be used.
A more detailed kinetic comparison of DIME, DIPE and DIPP on the kinetics of MTP assembly, in a concentration range of zero to 10 μM drug and a louvered GTP concentration (10 μM), is shown in FIG. 3.

Rana pipiens tadpoles = conditions: tadpole metamorphosis; cited from earlier work
thyroid iodine uptake = conditions: rat, in vivo; cited from earlier work
[4] = tested on: non-malignant mouse pituitary adenoma; conditions: cited from earlier work

Structure (SMILES): COC(=O)c1cc(I)c(Oc2ccc(OC)cc2Cl)c(I)c1 [2'-chloro analogue of DIME]
- maximal inhibitory action on growth as compared to DIME (human cancer cells; human cancer cells): about 25%

Structure (SMILES): CCCOc1ccc(Oc2c(I)cc(C(=O)OC)cc2I)cc1 [4'-propoxy homologue]
- cytostatic / cytocidal activity (human cancer cells): completely inactive

Structure (SMILES): CCOc1ccc(Oc2c(I)cc(C(=O)OC)cc2I)cc1 [Compound 2]
- Percent inhibition of intitial velocity (microtubule assembly in vitro) [1]: 76%
- effect of substitution on inhibition of MTP polymerization [1]: progressively diminishes inhibition of MTP polymerization
- maximal cytocidal action as compared to DIME (human cancer cells; human cancer cells): 25-30%

Structure (SMILES): CCCCOc1ccc(Oc2c(I)cc(C(=O)OC)cc2I)cc1 [Compound 4]
- Percent inhibition of intitial velocity (microtubule assembly in vitro) [1]: 8%
- effect of substitution on inhibition of MTP polymerization [1]: progressively diminishes inhibition of MTP polymerization

Structure (SMILES): CCOC(=O)c1cc(I)c(Oc2ccc(OC)cc2)c(I)c1 [Compound 5]
- Percent inhibition of intitial velocity (microtubule assembly in vitro) [1]: 35%
- cytostatic / cytocidal activity (human cancer cells): completely inactive

Structure (SMILES): COc1ccc(Oc2c(I)cc(C(=O)O)cc2I)cc1 [Compound 6]
- Percent inhibition of intitial velocity (microtubule assembly in vitro) [1]: 0%
- effect of substitution on inhibition of MTP polymerization [1]: completely abolishes the inhibitory effect on MTP polymerization
- efficacy against tumor cells relative to ester (human cancer cells; carboxylic acid from hydrolysis of the ester): much less efficacy against tumor cells than the ester
- antitumorigenic action (E-ras 20 cells): only halves the antitumorigenic action

Structure (SMILES): COc1ccc(Oc2c(I)cc(C(N)=O)cc2I)cc1 [Compound 7]
- Percent inhibition of intitial velocity (microtubule assembly in vitro) [1]: 43%

Structure (SMILES): COc1ccc(Oc2c(I)cc(C(=O)N(C)C)cc2I)cc1 [Compound 9]
- Percent inhibition of intitial velocity (microtubule assembly in vitro) [1]: 6%

Structure (SMILES): COc1ccc(Oc2c(I)cc(C(C)=O)cc2I)cc1 [DIPE, 1-[3,5-diiodo-4-(4'-methoxyphenoxy)-phenyl]-ethanone]
- inhibitory action on MTP assembly (comparison, FIG. 2) [1]: similar
- order of potency on MTP assembly (FIG. 3) [1]: DIME>DIPE>DIPP
- Cell number ([2]; 48 hours, control 150): 55 ×10^3 cell number per 2 cm^2 w
- Cell number ([2]; 72 hours, control 300): 60 ×10^3 cell number per 2 cm^2 w
- Cell number ([3]; 2 μM, 48 hours, control 110): 78 ×10^3 cell number per 2 cm^2 w
- Cell number ([3]; 2 μM, 72 hours, control 190): 81 ×10^3 cell number per 2 cm^2 w
- Cell number ([3]; 5 μM + BNPP 150 μM (esterase inhibitor), 48 hours, control 110): 37 ×10^3 cell number per 2 cm^2 w
- Cell number ([3]; 5 μM + BNPP 150 μM (esterase inhibitor), 72 hours, control 190): 38 ×10^3 cell number per 2 cm^2 w
- Cell number ([3]; 5 μM, 48 hours, control 110): 38 ×10^3 cell number per 2 cm^2 w
- Cell number ([3]; 5 μM, 72 hours, control 190): 40 ×10^3 cell number per 2 cm^2 w
- effect of esterase inhibitor BNPP on cytocidal action ([3]; lung cancer cells, with BNPP): no supportive effect
- effect on colony formation (FIG. 1) (mammary cancer cells): superimposable
- stability against esterases (cellular esterases): absence of esterase action

Structure (SMILES): CCC(=O)c1cc(I)c(Oc2ccc(OC)cc2)c(I)c1 [DIPP, 1-[3,5-diiodo-4-(4'-methoxyphenoxy)-phenyl]-1-propanone]
- inhibitory action on MTP assembly (comparison, FIG. 2) [1]: similar
- order of potency on MTP assembly (FIG. 3) [1]: DIME>DIPE>DIPP
- Cell number ([2]; 48 hours, control 150): 90 ×10^3 cell number per 2 cm^2 w
- Cell number ([2]; 72 hours, control 300): 145 ×10^3 cell number per 2 cm^2 w
- effectiveness relative to DIME and DIPE ([2]; 72 hrs): about one half as effective as the other two drugs

Structure (SMILES): NC(Cc1cc(I)c(Oc2cc(I)c(O)c(I)c2)c(I)c1)C(=O)O (stereo not drawn) [thyroxine]
- cell differentiating / metamorphogenic activity (Rana pipiens tadpoles): induces cell differentiation
- suppression of uptake of iodine by the thyroid (thyroid iodine uptake): suppresses uptake of iodine by the thyroid
- inhibition of growth of non-malignant pituitary tumor [4]: depress growth of non-malignant mouse pituitary thyrotropic tumors
